Measurements taken from patent US7868006B2, “Heterocyclic substituted piperazines with CXCR3 antagonist activity” (Schering Corporation, priority 2005, dated 2011).

These compounds were tested against T1, human CXCR3 (N-delta 4) (Homo sapiens, UniProt P49682) (assay: Human CXCR3 (N-delta 4) Scintillation Proximity Assay (SPA), [125I] IP-10 binding). Settings: IC50 rating; Ba/F3-hCXCR3 (N-delta 4) membranes, 25 pM [125I] IP-10; read-out: IC50.
T1 construct: CD8 leader (N); Flag tag (N); expressed in transfected cells; host or cells: mouse pro-B Ba/F3 cells, stably transfected with pME18Sneo-hCXCR3 (N-delta 4); membrane preparation
T1 sequence (P49682 5-368 limits assumed): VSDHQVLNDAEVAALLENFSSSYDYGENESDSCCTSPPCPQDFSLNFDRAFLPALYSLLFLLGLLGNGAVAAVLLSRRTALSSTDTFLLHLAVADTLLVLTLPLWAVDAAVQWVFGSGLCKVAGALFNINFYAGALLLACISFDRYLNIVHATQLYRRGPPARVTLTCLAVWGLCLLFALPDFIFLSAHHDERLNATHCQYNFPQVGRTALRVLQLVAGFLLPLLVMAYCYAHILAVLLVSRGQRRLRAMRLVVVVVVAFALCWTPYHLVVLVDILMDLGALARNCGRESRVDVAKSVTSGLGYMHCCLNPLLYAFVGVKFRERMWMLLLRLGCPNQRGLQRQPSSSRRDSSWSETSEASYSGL
From the text: The inventive compounds can readily be evaluated to determine activity at The CXCR3 receptors by known methods, such as, for example, Development of Human CXCR3 (N-delta 4) Binding Assay.
Cloning and Expression of Human CXCR3 (N-delta 4):
The DNA encoding human CXCR3 was cloned by PCR using human genomic DNA (Promega, Madison, Wis.) as a template. The PCR primers were designed based on the published sequence of human orphan receptor GPR9 (1) with incorporated restriction sites, a Kozak consensus sequence, CD8 leader and Flag tag. The PCR product was subcloned into the mammalian expression vector pME18Sneo, a derivative of the SR-alpha expression vector (designated as pME18Sneo-hCXCR3 (N-delta 4).
IL-3-dependent mouse pro-B cells Ba/F3 were transfected by electroporation in 0.4 ml Dulbecco's PBS containing 4×10^6 cells with 20 μg of pME18Sneo-hCXCR3 (N-delta 4) plasmid DNA. Cells were pulsed at 400 Volts, 100 OHMs, 960 μFd. The transfected cells were under selection with 1 mg/ml G418 (Life Technologies, Gaithersburg, Md.). G418-resistant Ba/F3 clones were screened for CXCR3 expression by specific binding of [^125I] IP-10 (NEN Life Science Products, Boston, Mass.).
Preparation of Ba/F3-hCXCR3 (N-delta 4) Membranes:
Ba/F3 cells expressing human CXCR3 (N-delta 4) were pelleted and resuspended in the lysis buffer containing 10 mM HEPES, pH 7.5 and Complete® protease inhibitors (1 tablet per 100 ml) (Boehringer Mannheim, Indianapolis, Ind.) at a cell density of 20×10^6 cells per ml. After 5 minutes incubation on ice, cells were transferred to 4639 cell disruption bomb (Parr Instrument, Moline, Ill.) and applied with 1,500 psi of nitrogen for 30 minutes on ice. Large cellular debris was removed by centrifugation at 1,000×g. Cell membrane in the supernatant was sedimented at 100,000×g. The membrane was resuspended in the lysis buffer supplemented with 10% sucrose and stored at −80° C. Total protein concentration of the membrane was determined by BCA method from Pierce (Rockford, Ill.).
Human CXCR3 (N-delta 4) Scintillation Proximity Assay (SPA):
For each assay point, 2 μg of membrane was preincubated for 1 hr with 300 μg wheat germ agglutinin (WGA) coated SPA beads (Amersham, Arlington Heights, Ill.) in the binding buffer (50 mM HEPES, 1 mM CaCl2, 5 mM MgCl2, 125 mM NaCl, 0.002% NaN3, 1.0% BSA) at room temperature. The beads were spun down, washed once, resuspended in the binding buffer and transferred to a 96-well Isoplate (Wallac, Gaithersburg, Md.). 25 pM of [^125I] IP-10 with tested compounds in a series of titration were added to start the reaction. After 3 hr reaction at room temperature, the amount of [^125I] IP-10 bound to the SPA beads was determined with a Wallac 1450 Microbeta counter.
The Ki values for the various example compounds of the present invention are given in the afore-mentioned Table 1. From these values, it would be apparent to the skilled artisan that the compounds of the invention have excellent utility CXCR3 antagonists.

| SMILES | IC50 [nM] |
| --- | --- |
| CC[C@H]1CN(c2ncc(-c3n[nH]c(N)n3)nc2C)CCN1C1CCN(C(=O)c2ccc(Cl)nc2N)CC1 [Compound 44] | < 25 |
| CC[C@H]1CN(c2nc(N)c(-c3n[nH]c(=S)n3C)nc2Cl)CCN1C1CCN(Cc2ccc(Cl)cc2)CC1 [Compound 86] | > 100 |
| CC[C@H]1CN(c2nc(N)c(-c3nnc(C(=O)NC4CC4)o3)nc2Cl)CCN1C1CCN(C(=O)c2ccc(Cl)cc2)CC1 [Compound 88] | > 100 |
| CC[C@H]1CN(c2ncc(-c3ncc[nH]3)nc2C)CCN1C1CCN(Cc2ccc(F)c(F)c2)CC1 [Compound 108] | < 25 |
| CC[C@H]1CN(c2ncc(-c3nnc(N)o3)nc2C)CCN1C1CCN(C(=O)c2ccc(C(F)(F)F)cc2)CC1 [Compound 72] | < 25 |
| CC[C@H]1CN(c2ncc(-c3nnc(N)[nH]3)nc2C)CCN1C1CCN(C(=O)c2ccc(Cl)cc2)CC1 [Compound 120] | < 25 |
| CC[C@H]1CN(c2ncc(-c3nnc(C)[nH]3)nc2C)CCN1C1CCN(C(=O)c2ccc(Cl)cc2)CC1 [Compound 53] | < 25 |
| CCNc1nnc(-c2cnc(N3C[C@H](CC)N(C4CCN(Cc5ccc(F)cc5)CC4)C[C@H]3C)c(C)n2)o1 [Compound 128] | < 25 |
| CC[C@H]1CN(c2ncc(-c3nc[nH]n3)nc2C)CCN1C1CCN(C(=O)c2ccc(C)c(F)c2)CC1 [Compound 110] | < 25 |
| CCNc1nnc(-c2nc(Cl)c(N3C[C@H](CC)N(C4CCN(C(=O)c5ccc(Cl)nc5N)CC4)C[C@H]3C)nc2N)o1 [Compound 93] | < 25 |
| CCO/C=N\c1nc(N2CCN(C3CCN(Cc4ccc(Cl)cc4)CC3)[C@@H](CC)C2)c(Cl)nc1-c1nnco1 [Compound 60] | < 25 |
| CC[C@H]1CN(c2nc(N)c(-c3nnc(C(N)=O)o3)nc2Cl)CCN1C1CCN(C(=O)c2ccc(Cl)cc2)CC1 [Compound 70] | < 25 |
| CCNc1nnc(-c2cnc(N3CCN(C4CCN(C(=O)c5ccc(Cl)nc5N)CC4)[C@@H](CC)C3)c(C)n2)o1 [Compound 16] | < 25 |
| CC[C@H]1CN(c2nc(N)c(-c3nnc(C)o3)nc2Cl)CCN1C1CCN([C@H](C(=O)OC)c2ccc(Cl)cc2)CC1 [Compound 83] | > 100 |
| CC[C@H]1CN(c2nc(N)c(-c3nnc(C)o3)nc2Cl)CCN1C1CCN(Cc2ccc(Cl)cc2)CC1 [Compound 4] | < 25 |
| CC[C@H]1CN(c2nc(N)c(-c3nnc(C)o3)nc2Cl)CCN1C1CCN(C(=O)c2ccc(Cl)nc2)CC1 [Compound 57] | < 25 |
| CC[C@H]1CN(c2ncc(-c3ncc[nH]3)nc2C)CCN1C1CCN(Cc2ccc(F)cc2)CC1 [Compound 104] | < 25 |
| CCNc1nnc(-c2cnc(N3CCN(C4CCN(Cc5ccc(C)c(F)c5)CC4)[C@@H](CC)C3)c(C)n2)o1 [Compound 127] | < 25 |
| CC[C@H]1CN(c2ncc(-c3nnc(C)[nH]3)nc2Cl)CCN1C1CCN(C(=O)c2ccc(Cl)nc2N)CC1 [Compound 37] | < 25 |
| CC[C@H]1CN(c2ncc(-c3nnc(N)o3)nc2C)[C@H](C)CN1C1CCN(C(=O)c2ccc(Cl)cc2)CC1 [Compound 102] | < 25 |
| CC[C@H]1CN(c2nc(N)c(-c3nnc(C)o3)nc2Cl)CCN1C1CCN(C(=O)c2ccc(Cl)cc2)CC1 [Compound 43] | < 25 |
| CC[C@H]1CN(c2ncc(-c3nnc(C4CC4)[nH]3)nc2C)CCN1C1CCN(C(=O)c2ccc(Cl)cc2)CC1 [Compound 140] | < 25 |
| CC[C@H]1CN(c2nc(N)c(-c3nnc(C)o3)nc2Cl)CCN1C1CCN(C(=O)c2cc(F)c(N)nc2Cl)CC1 [Compound 82] | > 100 |
| CC[C@H]1CN(c2nc(N)c(-c3nnc(N)o3)nc2Cl)CCN1C1CCN(C(=O)c2ccc(C#N)cc2)CC1 [Compound 56] | < 25 |
| CC[C@H]1CN(c2ncc(-c3nc[nH]n3)nc2C)[C@H](C)CN1C1CCN(C(=O)c2ccc(Cl)nc2N)CC1 [Compound 131] | < 25 |
| CC[C@H]1CN(c2nc(N)c(-c3nnc(C4CC4)o3)nc2Cl)CCN1C1CCN(C(=O)c2ccc(Cl)nc2N)CC1 [Compound 52] | < 25 |
| CC[C@H]1CN(c2nc(N)c(-c3nnc(C(F)(F)F)o3)nc2Cl)CCN1C1CCN(C(=O)c2ccc(Cl)cc2)CC1 [Compound 80] | > 100 |
| CC[C@H]1CN(c2ncc(-c3ncc[nH]3)nc2C)[C@H](C)CN1C1CCN(C(=O)c2ccc(Cl)nc2N)CC1 [Compound 130] | < 25 |

The remaining lines, values ahead:

| IC50 [nM] | SMILES |
| --- | --- |
| < 25 | CC[C@H]1CN(c2ncc(-c3nnc(NC(C)C)o3)nc2C)CCN1C1CCN(C(=O)c2ccc(F)c(F)c2)CC1 [Compound 159] |
| < 25 | CCNc1nnc(-c2cnc(N3C[C@H](CC)N(C4CCN(C(CO)c5ccc(F)c(F)c5)CC4)C[C@H]3C)c(C)n2)o1 (some centres unmarked) [Compound 175] |
| < 25 | CCNc1nnc(-c2cnc(N3C[C@H](CC)N(C4CCN(C(C(=O)OC)c5ccc(F)c(F)c5)CC4)C[C@H]3C)c(C)n2)o1 (some centres unmarked) [Compound 188] |
| < 25 | CCNc1nnc(-c2cnc(N3C[C@H](CC)N(C4CCN(C(=O)c5ccc(C(F)(F)F)nc5N)CC4)C[C@H]3C)c(C)n2)o1 [Compound 189] |
| < 25 | CCNc1nnc(-c2cnc(N3CCN(C4CCN(C(=O)c5ccc(F)c(F)c5)CC4)[C@@H](CC)C3)c(C)n2)o1 [Compound 144] |
| < 25 | CC[C@H]1CN(c2ncc(-c3nnc(C)o3)nc2Cl)CCN1C1CCN(C(=O)c2ccc(Cl)nc2N)CC1 [Compound 151] |
| < 25 | CCNc1nnc(-c2cnc(N3C[C@H](CC)N(C4CCN(C(=O)c5ccc(Cl)cc5)CC4)C[C@H]3C)c(C(F)(F)F)n2)o1 [Compound 191] |
| 25 to 100 | CC[C@H]1CN(c2ncc(-c3nc[nH]n3)nc2C)CCN1C1CCN(C(=O)c2ccc(C(F)(F)F)nc2N)CC1 [Compound 147] |
| 25 to 100 | CCOC(=O)CNc1nnc(-c2cnc(N3CCN(C4CCN(Cc5ccc(F)c(F)c5COCc5ccccc5)CC4)[C@@H](CC)C3)c(C)n2)o1 [Compound 195] |
| < 25 | CC[C@H]1CN(c2ncc(-c3nnc(NC4(C)CC4)o3)nc2C)[C@H](C)CN1C1CCN(C(=O)c2ccc(Cl)cc2)CC1 [Compound 180] |
| < 25 | CC[C@H]1CN(c2ncc(C3=NCCN3)nc2C)[C@H](C)CN1C1CCN(Cc2ccc(OC(F)(F)F)cc2)CC1 [Compound 150] |
| < 25 | CCNc1nnc(-c2cnc(N3CCN(C4CCN(C(=O)c5ccc(Cl)nc5N)CC4)[C@@H](CC)C3)c(CC)n2)o1 [Compound 173] |
| 25 to 100 | CCNc1nnc(-c2cnc(N3CCN(C4CCN(C(=O)c5ccc(Cl)nc5N)CC4)[C@@H](CC)C3)c(C3CC3)n2)o1 [Compound 181] |
| < 25 | CC[C@H]1CN(c2ncc(-c3nnc(NC)o3)nc2C)[C@H](C)CN1C1CCN(C(=O)c2ccc(Cl)nc2N)CC1 [Compound 161] |
| < 25 | CCNc1nnc(-c2cnc(N3CCN(C4CCN(C(=O)c5ccc(Cl)cc5C)CC4)[C@@H](CC)C3)c(C)n2)o1 [Compound 156] |
| < 25 | CCNc1nnc(-c2cnc(N3CCN(C4CCN(C(=O)c5ccc(Cl)cc5)CC4)[C@@H](CC)C3)c(C)n2)o1 [Compound 142] |
| 25 to 100 | CC[C@H]1CN(c2ncc(-c3nnc(N)o3)nc2C)[C@H](C)CN1C1CCN([C@H](C(=O)OC)c2ccc(Cl)cc2)CC1 [Compound 170] |
| < 25 | CC[C@H]1CN(c2ncc(-c3nnc[nH]3)nc2C(F)(F)F)CCN1C1CCN(C(=O)c2ccc(Cl)cc2)CC1 [Compound 154] |
| < 25 | CC[C@H]1CN(c2nc(N)c(-c3nnc(NCC(=O)NC)o3)nc2C)CCN1C1CCN(C(=O)c2ccc(Cl)nc2N)CC1 [Compound 193] |
